Several values for one entry are separate records, joined by “and”; a condition that tells them apart may be missing. Equal entries are not always repeated. Inconclusive results and toxic doses are left out. No stated cut-off is given here; in the data, active means T/C of 150% or more; inactive means T/C below 125%.
Tested on: L1210 leukemia ip in BDF1 mice, survival T/C
Test: NCI In Vivo Anticancer Drug Screen. Data for tumor model L1210 Leukemia (intraperitoneal) in B6D2F1 (BDF1) mice
Settings: endpoint: mean survival time, higher = longer survival
Summary of the method: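 Transplanted-tumor mice were given test agent; controls received vehicle only. Survival readings from the two groups were divided (treated over control).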

[1] = dose: 100.0 mg/kg/injection, schedule: Q04DX003 (ip), vehicle: saline with Tween-80
[2] = dose: 200.0 mg/kg/injection, schedule: Q04DX003 (ip), vehicle: saline with Tween-80
[3] = dose: 400.0 mg/kg/injection, schedule: Q04DX003 (ip), vehicle: saline with Tween-80
[4] = dose: 100.0 mg/kg/injection, schedule: Q01DX001 (ip), vehicle: carboxymethylcellulose (CMC)
[5] = dose: 200.0 mg/kg/injection, schedule: Q01DX001 (ip), vehicle: carboxymethylcellulose (CMC)
[6] = dose: 100.0 mg/kg/injection, schedule: Q01DX001 (ip), vehicle: saline
[7] = dose: 200.0 mg/kg/injection, schedule: Q01DX001 (ip), vehicle: saline
[8] = dose: 400.0 mg/kg/injection, schedule: Q01DX001 (ip), vehicle: saline
[9] = dose: 100.0 mg/kg/injection, schedule: Q01DX009 (ip), vehicle: saline
[10] = dose: 100.0 mg/kg/injection, schedule: Q04DX003 (ip), vehicle: saline
[11] = dose: 200.0 mg/kg/injection, schedule: Q01DX009 (ip), vehicle: saline
[12] = dose: 200.0 mg/kg/injection, schedule: Q04DX003 (ip), vehicle: saline
[13] = dose: 100.0 mg/kg/injection, schedule: Q01DX009 (ip), vehicle: saline with Tween-80
[14] = dose: 200.0 mg/kg/injection, schedule: Q01DX009 (ip), vehicle: saline with Tween-80
[15] = dose: 400.0 mg/kg/injection, schedule: Q01DX009 (ip), vehicle: saline with Tween-80
[16] = dose: 100.0 mg/kg/injection, schedule: Q01DX009 (ip), vehicle: Klucel (hydroxypropylcellulose) (HPC)
[17] = dose: 200.0 mg/kg/injection, schedule: Q01DX009 (ip), vehicle: Klucel (hydroxypropylcellulose) (HPC)
[18] = dose: 400.0 mg/kg/injection, schedule: Q01DX009 (ip), vehicle: Klucel (hydroxypropylcellulose) (HPC)

Measured: T/C

COc1ccc(NC(=O)NC2CCCCC2)c(Cl)c1
inactive: dose: 100.0 mg/kg/injection, schedule: Q04DX002 (ip), vehicle: Klucel (hydroxypropylcellulose) (HPC) 97 % of control | dose: 200.0 mg/kg/injection, schedule: Q04DX002 (ip), vehicle: Klucel (hydroxypropylcellulose) (HPC) 102 % of control | dose: 400.0 mg/kg/injection, schedule: Q04DX002 (ip), vehicle: Klucel (hydroxypropylcellulose) (HPC) 94 % of control

C1CCC(CCCCC2CCC(CCCCC3CCCCC3)CC2)CC1 (stereo not given)
inactive: [1] 91 % of control | [2] 93 % of control | [3] 96 % of control

CCOC(=O)c1ccc(NC(=O)c2ccc(F)cc2)cc1
inactive: [4] 97 % of control and 105 % of control | dose: 100.0 mg/kg/injection, schedule: Q01DX009 (ip), vehicle: carboxymethylcellulose (CMC) 103 % of control and 105 % of control | dose: 100.0 mg/kg/injection, schedule: Q04DX002 (ip), vehicle: carboxymethylcellulose (CMC) 96 % of control and 97 % of control | dose: 100.0 mg/kg/injection, schedule: Q04DX003 (ip), vehicle: carboxymethylcellulose (CMC) 94 % of control and 98 % of control | [5] 101 % of control and 91 % of control | dose: 200.0 mg/kg/injection, schedule: Q01DX009 (ip), vehicle: carboxymethylcellulose (CMC) 94 % of control and 91 % of control | dose: 200.0 mg/kg/injection, schedule: Q04DX002 (ip), vehicle: carboxymethylcellulose (CMC) 97 % of control and 100 % of control | dose: 200.0 mg/kg/injection, schedule: Q04DX003 (ip), vehicle: carboxymethylcellulose (CMC) 95 % of control and 91 % of control | dose: 400.0 mg/kg/injection, schedule: Q01DX001 (ip), vehicle: carboxymethylcellulose (CMC) 96 % of control and 90 % of control | dose: 400.0 mg/kg/injection, schedule: Q01DX009 (ip), vehicle: carboxymethylcellulose (CMC) 93 % of control and 106 % of control | dose: 400.0 mg/kg/injection, schedule: Q04DX002 (ip), vehicle: carboxymethylcellulose (CMC) 92 % of control and 90 % of control | dose: 400.0 mg/kg/injection, schedule: Q04DX003 (ip), vehicle: carboxymethylcellulose (CMC) 100 % of control and 91 % of control

O=c1c2ccccc2ncn1C1OC(CO)C(O)C1O (stereo not given)
inactive: [6] 96 % of control | [7] 102 % of control | [8] 104 % of control

COc1cccc(/C=N/N=C(N)N)c1
inactive: dose: 15.0 mg/kg/injection, schedule: Q01DX Z (ip), vehicle: saline 94 % of control | dose: 30.0 mg/kg/injection, schedule: Q01DX Z (ip), vehicle: saline 97 % of control | dose: 30.0 mg/kg/injection, schedule: Q01DX Z (oral), vehicle: saline 104 % of control | dose: 60.0 mg/kg/injection, schedule: Q01DX Z (ip), vehicle: saline 92 % of control | dose: 60.0 mg/kg/injection, schedule: Q01DX Z (oral), vehicle: saline 104 % of control | dose: 120.0 mg/kg/injection, schedule: Q01DX Z (oral), vehicle: saline 101 % of control

COc1cccc(-n2cccc2)c1
inactive: dose: 100.0 mg/kg/injection, schedule: Q01DX001 (ip), vehicle: other 103 % of control | dose: 200.0 mg/kg/injection, schedule: Q01DX001 (ip), vehicle: other 105 % of control | dose: 400.0 mg/kg/injection, schedule: Q01DX001 (ip), vehicle: other 108 % of control

COc1ccc(CCNC(=S)NCCc2ccc(OC)c(OC)c2)cc1OC
inactive: dose: 25.0 mg/kg/injection, schedule: Q01DX009 (ip), vehicle: saline 100 % of control | dose: 50.0 mg/kg/injection, schedule: Q01DX009 (ip), vehicle: saline 92 % of control | [9] 98 % of control | [10] 86 % of control | [11] 92 % of control | [12] 86 % of control

c1ccc(Pc2ccccc2)cc1
inactive: dose: 100.0 mg/kg/injection, schedule: Q01DX001 (ip), vehicle: saline with Tween-80 103 % of control | [13] 93 % of control | dose: 200.0 mg/kg/injection, schedule: Q01DX001 (ip), vehicle: saline with Tween-80 105 % of control | [14] 98 % of control | dose: 400.0 mg/kg/injection, schedule: Q01DX001 (ip), vehicle: saline with Tween-80 104 % of control

CCCCCCCCCCCCCCCCCCO
inactive: [13] 99 % of control | [14] 92 % of control | [15] 87 % of control

Cc1nc2nc(C(F)(F)F)[nH]c2nc1C
inactive: dose: 50.0 mg/kg/injection, schedule: Q01DX009 (ip), vehicle: saline with Tween-80 98 % of control | [13] 96 % of control and 120 % of control | [14] 101 % of control and 102 % of control

O=C(C1CCC2c3ccccc3CCC2C1C(=O)N1CCCCC1)N1CCCCC1 (stereo not given)
inactive: dose: 50.0 mg/kg/injection, schedule: Q01DX001 (ip), vehicle: carboxymethylcellulose (CMC) 103 % of control | [4] 101 % of control | [5] 108 % of control

OCCC/C=C/CCI
inactive: [16] 93 % of control | dose: 100.0 mg/kg/injection, schedule: Q04DX003 (ip), vehicle: Klucel (hydroxypropylcellulose) (HPC) 112 % of control | [17] 90 % of control | dose: 200.0 mg/kg/injection, schedule: Q04DX003 (ip), vehicle: Klucel (hydroxypropylcellulose) (HPC) 109 % of control | [18] 98 % of control | dose: 400.0 mg/kg/injection, schedule: Q04DX003 (ip), vehicle: Klucel (hydroxypropylcellulose) (HPC) 91 % of control

CC12CCCC(=O)C1CC/C(=C\c1ccco1)C2=O (stereo not given)
inactive: [9] 109 % of control | [10] 102 % of control | [11] 98 % of control | [12] 104 % of control | dose: 400.0 mg/kg/injection, schedule: Q01DX009 (ip), vehicle: saline 114 % of control | dose: 400.0 mg/kg/injection, schedule: Q04DX003 (ip), vehicle: saline 104 % of control

O=C1C(=O)c2ccc(Br)cc2C(O)=C1C(c1ccccc1)c1ccccc1
inactive: [6] 100 % of control | [7] 106 % of control | [8] 96 % of control

C=CC[P+](C)(c1ccccc1)c1ccccc1
inactive: dose: 3.13 mg/kg/injection, schedule: Q01DX009 (ip), vehicle: saline 106 % of control

O=C(C=C(C(F)(F)F)C(F)(F)F)c1cccc(C(F)(F)F)c1
inactive: dose: 12.5 mg/kg/injection, schedule: Q01DX009 (ip), vehicle: saline with Tween-80 102 % of control | dose: 25.0 mg/kg/injection, schedule: Q01DX009 (ip), vehicle: saline with Tween-80 95 % of control | [1] 89 % of control

CCN(CC)P(=O)(N1CC1(C)C)N1CC1(C)C (stereo not given)
inactive: dose: 88.0 mg/kg/injection, schedule: Q01DX001 (ip), vehicle: carboxymethylcellulose (CMC) 114 % of control | dose: 88.0 mg/kg/injection, schedule: Q01DX001 (ip), vehicle: saline 102 % of control | [6] 118 % of control | dose: 133.0 mg/kg/injection, schedule: Q01DX001 (ip), vehicle: carboxymethylcellulose (CMC) 118 % of control | dose: 133.0 mg/kg/injection, schedule: Q01DX001 (ip), vehicle: saline 107 % of control | [5] 114 % of control | dose: 300.0 mg/kg/injection, schedule: Q01DX001 (ip), vehicle: saline 115 % of control

NC(=O)Cc1ccc(O)cc1
inactive: dose: 12.5 mg/kg/injection, schedule: Q04DX002 (ip), vehicle: saline with Tween-80 98 % of control | dose: 25.0 mg/kg/injection, schedule: Q04DX002 (ip), vehicle: saline with Tween-80 107 % of control | dose: 50.0 mg/kg/injection, schedule: Q04DX002 (ip), vehicle: saline with Tween-80 93 % of control and 105 % of control | dose: 50.0 mg/kg/injection, schedule: Q04DX002 (ip), vehicle: saline 113 % of control | dose: 100.0 mg/kg/injection, schedule: Q04DX002 (ip), vehicle: saline with Tween-80 98 % of control and 101 % of control | dose: 200.0 mg/kg/injection, schedule: Q04DX002 (ip), vehicle: saline with Tween-80 96 % of control and 98 % of control | dose: 200.0 mg/kg/injection, schedule: Q04DX002 (ip), vehicle: saline 113 % of control | dose: 400.0 mg/kg/injection, schedule: Q04DX002 (ip), vehicle: saline with Tween-80 101 % of control

CCOC(=O)C(C)C(O)(c1ccccc1)c1ccccc1 (stereo not given)
inactive: [16] 90 % of control | [17] 97 % of control | [18] 106 % of control

ONC(=Nc1ccccc1)c1ccccc1
inactive: [10] 104 % of control | [12] 101 % of control

CCOc1nc(=O)n(CC(=O)c2ccc(Cl)s2)cc1F
inactive: [13] 105 % of control | [1] 103 % of control | [14] 90 % of control | [2] 103 % of control | [15] 86 % of control | [3] 94 % of control

From PubChem BioAssay AID248 (DTP/NCI, 2004)
